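GI50 marks 50% less growth. The concentration for full growth arrest is given as TGI.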
What was measured:
Assay in all cases: DTP human tumour cell line panel, 384-well format
[1] = tested on: 786-0 renal
[2] = tested on: M14 melanoma
[3] = tested on: UACC-62 melanoma
[4] = tested on: SR leukemia
[5] = tested on: SW-620 colon
[6] = tested on: OVCAR-5 ovarian
[7] = tested on: HT29 colon
[8] = tested on: T-47D breast
[9] = tested on: RXF 393 renal
[10] = tested on: COLO 205 colon
[11] = tested on: SK-MEL-28 melanoma
[12] = tested on: SNB-19 CNS
[13] = tested on: CAKI-1 renal
[14] = tested on: PC-3 prostate
[15] = tested on: HS 578T breast
[16] = tested on: HL-60(TB) leukemia
[17] = tested on: NCI-H522 lung
[18] = tested on: K-562 leukemia
[19] = tested on: OVCAR-3 ovarian
[20] = tested on: MDA-MB-231 breast
[21] = tested on: NCI-H460 NSCLC
[22] = tested on: NCI-H322M lung
[23] = tested on: MOLT-4 leukemia
[24] = tested on: OVCAR-4 ovarian
[25] = tested on: SN12C renal
[26] = tested on: MCF7 breast
[27] = tested on: OVCAR-8 ovarian
[28] = tested on: HOP-92 NSCLC
[29] = tested on: LOX IMVI melanoma
[30] = tested on: SK-MEL-5 melanoma
[31] = tested on: NCI-H23 lung
[32] = tested on: MDA-MB-435 melanoma
[33] = tested on: TK-10 renal
[34] = tested on: HOP-62 NSCLC
[35] = tested on: SF-268 CNS
[36] = tested on: NCI-H226 lung
[37] = tested on: SF-539 CNS
[38] = tested on: NCI/ADR-RES ovarian
[39] = tested on: RPMI-8226 leukemia
[40] = tested on: HCC-2998 colon
[41] = tested on: IGROV1 ovarian
[42] = tested on: HCT-15 colon
[43] = tested on: CCRF-CEM leukemia
[44] = tested on: A498 renal
[45] = tested on: SF-295 CNS
[46] = tested on: KM12 colon
[47] = tested on: MDA-MB-468 breast
[48] = tested on: DU-145 prostate
[49] = tested on: UACC-257 melanoma
[50] = tested on: BT-549 breast
[51] = tested on: SNB-75 CNS
[52] = tested on: SK-OV-3 ovarian
[53] = tested on: ACHN renal
[54] = tested on: EKVX NSCLC
[55] = tested on: A549 NSCLC
[56] = tested on: MALME-3M melanoma
[57] = tested on: UO-31 renal

## C=CC(=O)N[C@H]1C=C(C)c2c(-c3cnc4ccccc4c3)c3c(N)ncnc3n2C1
[1]
  GI50: 12.7 µM
  TGI: 28.8 µM
[2]
  GI50: 13.2 µM
  TGI: 31.9 µM
[3]
  GI50: 6 µM
  TGI: 18.9 µM
[4]
  GI50: 2.45 µM
  TGI: 10.9 µM
[5]
  GI50: 28.5 µM
  TGI: 61.6 µM
[6]
  GI50: 26.2 µM
  TGI: 74.1 µM
[7]
  GI50: 17.5 µM
  TGI: 58.5 µM
[8]
  GI50: 11.5 µM
  TGI: 82 µM
[9]
  GI50: 10 µM
  TGI: 27.7 µM
[10]
  GI50: 26.2 µM
  TGI: 70.4 µM
[11]
  GI50: 14.2 µM
  TGI: 46.2 µM
[12]
  GI50: 27 µM
  TGI: 73.3 µM
[13]
  GI50: 3.49 µM
  TGI: 21.3 µM
[14]
  GI50: 34.1 µM
  TGI: 98.8 µM
[15]
  GI50: 12.8 µM
  TGI: 26.4 µM
[16]
  GI50: 26.7 µM
  TGI: 41.6 µM
[17]
  GI50: 0.242 µM
  TGI: 9.32 µM
[18]
  GI50: 23.9 µM
  TGI: 80.6 µM
[19]
  GI50: 7.32 µM
  TGI: 24.9 µM
[20]
  GI50: 13.7 µM
  TGI: 35.4 µM
[21]
  GI50: 14.8 µM
  TGI: 30 µM
[22]
  GI50: 0.109 µM
  TGI: 16.4 µM
[23]
  GI50: 5.47 µM
  TGI: 17.5 µM
[24]
  GI50: 16.2 µM
  TGI: 65.5 µM
[25]
  GI50: 15.6 µM
  TGI: 63.9 µM
[26]
  GI50: 19.7 µM
  TGI: > 100 µM
[27]
  GI50: 15.8 µM
  TGI: 35 µM
[28]
  GI50: 10.2 µM
  TGI: 33.1 µM
[29]
  GI50: 14.7 µM
  TGI: 28.1 µM
[30]
  GI50: 13.2 µM
  TGI: 26 µM
[31]
  GI50: 18.2 µM
  TGI: 40.6 µM
[32]
  GI50: 31 µM
  TGI: 87 µM
[33]
  GI50: 0.228 µM
  TGI: 10.6 µM
[34]
  GI50: 17.1 µM
  TGI: 76 µM
[35]
  GI50: 15.1 µM
  TGI: 45.6 µM
[36]
  GI50: 5.39 µM
  TGI: 26.3 µM
[37]
  GI50: 15.1 µM
  TGI: 29.3 µM
[38]
  GI50: 34.1 µM
  TGI: > 100 µM
[39]
  GI50: 10 µM
  TGI: 22.1 µM
[40]
  GI50: 19.3 µM
  TGI: 35.1 µM
[41]
  GI50: 0.683 µM
  TGI: 8.36 µM
[42]
  GI50: 25.2 µM
  TGI: 82 µM
[43]
  GI50: 14.9 µM
  TGI: 28.2 µM
[44]
  GI50: 2.11 µM
  TGI: 20.1 µM
[45]
  GI50: 29.5 µM
  TGI: > 100 µM
[46]
  GI50: 18.8 µM
  TGI: 36.3 µM
[47]
  GI50: 0.0243 µM
  TGI: 0.0646 µM
[48]
  GI50: 14.1 µM
  TGI: 44.9 µM
[49]
  GI50: 18.9 µM
  TGI: 48 µM
[50]
  GI50: 16.8 µM
  TGI: 35.7 µM
[51]
  GI50: 17.6 µM
  TGI: 45.9 µM
[52]
  GI50: 1.61 µM
  TGI: 15.1 µM
[53]
  GI50: 0.378 µM
  TGI: 18 µM
[54]
  GI50: 0.312 µM
  TGI: 25.5 µM
[55]
  GI50: 11.1 µM
  TGI: 30.2 µM
[56]
  GI50: 11.7 µM
  TGI: 24.1 µM
[57]
  GI50: 12.2 µM
  TGI: > 100 µM

— PubChem BioAssay (NCI)
